Calls of active or inactive are those of the source. The rule behind the calls is not given here.
What was measured:
[1] = test system: Quadruplex DNA; assay: Binding affinity to human telomeric 7 G-quadruplex DNA assessed as fluorescence quenching at 7 uM measured at 559.5 nanometer by fluorescence spectral analysis relative to control; format: nucleic-acid assay
[2] = test system: Quadruplex DNA; assay: Binding affinity to human telomeric 7 G-quadruplex DNA incubated for 5 mins by UV-visible spectrophotometric analysis; format: nucleic-acid assay
[3] = test system: Quadruplex DNA; assay: Binding affinity to human telomeric 7 G-quadruplex DNA assessed as binding constant Kb2 in 150 mM of KCl by fluorescence spectral analysis; format: nucleic-acid assay
[4] = test system: Quadruplex DNA; assay: Binding affinity to human telomeric 7 G-quadruplex DNA assessed as stern-volmer quenching constant in compound:DNA ratio of 0.4 to 1.0 by spectrofluorimetric analysis; format: nucleic-acid assay
[5] = test system: Quadruplex DNA; assay: Binding affinity to human telomeric 7 G-quadruplex DNA assessed as quenching constant by spectrofluorimetric analysis; format: nucleic-acid assay
[6] = test system: Quadruplex DNA; assay: Binding affinity to human telomeric 7 G-quadruplex DNA assessed as binding constant Kb1 at 591 nanometer by spectrofluorimetric analysis; format: nucleic-acid assay
[7] = test system: Quadruplex DNA; assay: Binding affinity to human telomeric 7 G-quadruplex DNA assessed as melting temperature Tm2 compound:DNA ratio of 2:0 by CD spectroscopy analysis (reference value: 64.3 +/- 0.2 degreeC); format: nucleic-acid assay
[8] = test system: Quadruplex DNA; assay: Binding affinity to human telomeric 22 G-quadruplex DNA assessed as binding constant in presence of KCl by CD spectroscopy analysis; format: nucleic-acid assay
[9] = test system: Quadruplex DNA; assay: Binding affinity to human telomeric 7 G-quadruplex DNA assessed as red shift in emission wavelength at 7 uM measured at 559.5 nanometer by fluorescence spectral analysis; format: nucleic-acid assay
[10] = test system: Quadruplex DNA; assay: Binding affinity to human telomeric 7 G-quadruplex DNA assessed as binding constant Kb2 in 50 mM of KCl by fluorescence spectral analysis; format: nucleic-acid assay
[11] = test system: Quadruplex DNA; assay: Binding affinity to human telomeric 22 G-quadruplex DNA assessed as binding constant in presence of NaCl by CD spectroscopy analysis; format: nucleic-acid assay
[12] = test system: Quadruplex DNA; assay: Binding affinity to human telomeric 7 G-quadruplex DNA assessed as binding constant Kb2 at 559.5 nanometer by spectrofluorimetric analysis; format: nucleic-acid assay
[13] = test system: Quadruplex DNA; assay: Binding affinity to human telomeric 7 G-quadruplex DNA assessed as binding constant Kb1 in water by fluorescence spectral analysis; format: nucleic-acid assay
[14] = test system: Quadruplex DNA; assay: Binding affinity to human telomeric 7 G-quadruplex DNA assessed as stern-volmer quenching constant in compound:DNA ratio of 1.2 to 3.8 by spectrofluorimetric analysis; format: nucleic-acid assay
[15] = test system: Quadruplex DNA; assay: Binding affinity to human telomeric 7 G-quadruplex DNA assessed as fluorescence quenching at 7 uM in presence of water by fluorescence spectral analysis relative to control; format: nucleic-acid assay
[16] = test system: Quadruplex DNA; assay: Binding affinity to human telomeric 7 G-quadruplex DNA assessed as fluorescence quenching at 7 uM by fluorescence spectral analysis; format: nucleic-acid assay
[17] = test system: Quadruplex DNA; assay: Binding affinity to human telomeric 7 G-quadruplex DNA by CD spectroscopy; format: nucleic-acid assay
[18] = test system: Quadruplex DNA; assay: Binding affinity to human telomeric 7 G-quadruplex DNA assessed as binding constant Kb2 in 100 mM KCl by fluorescence spectral analysis; format: nucleic-acid assay
[19] = test system: Quadruplex DNA; assay: Binding affinity to human telomeric 7 G-quadruplex DNA assessed as melting temperature compound:DNA ratio of 2:0 to 4:0 by CD spectroscopy analysis; format: nucleic-acid assay
[20] = test system: Quadruplex DNA; assay: Binding affinity to human telomeric 7 G-quadruplex DNA assessed as binding constant Kb1 in 100 mM NaCl by fluorescence spectral analysis; format: nucleic-acid assay
[21] = test system: Quadruplex DNA; assay: Binding affinity to human telomeric 7 G-quadruplex DNA assessed as fluorescence quenching at 7 uM in presence of 100 to 150 mM K+ ion by fluorescence spectral analysis relative to control; format: nucleic-acid assay
[22] = test system: Quadruplex DNA; assay: Binding affinity to human telomeric 7 G-quadruplex DNA assessed as fluorescence quenching at 7 uM measured at 591 nanometer by fluorescence spectral analysis relative to control; format: nucleic-acid assay
[23] = test system: Quadruplex DNA; assay: Binding affinity to human telomeric 7 G-quadruplex DNA assessed as delta Tm1 compound:DNA ratio of 0:5 by CD spectroscopy analysis; format: nucleic-acid assay
[24] = test system: Quadruplex DNA; assay: Binding affinity to human telomeric 7 G-quadruplex DNA assessed as delta Tm3 compound:DNA ratio of 2:0 by CD spectroscopy analysis; format: nucleic-acid assay
[25] = test system: Quadruplex DNA; assay: Effect on parallel topology of human telomeric 7 G-quadruplex DNA assessed as reduction in negative band ellipticity at compound:DNA ratio of 3:0 by CD spectroscopy relative to control; format: nucleic-acid assay; set-up: scale not given: the % may be the effect or the level left
[26] = test system: Quadruplex DNA; assay: Binding affinity to human telomeric 7 G-quadruplex DNA assessed as hypochromic red shift at 7 uM in presence of 100 to 150 mM K+ ion by fluorescence spectral analysis; format: nucleic-acid assay
[27] = test system: Quadruplex DNA; assay: Binding affinity to human telomeric 7 G-quadruplex DNA assessed as fluorescence quenching at 7 uM in presence of 100 mM NaCl by fluorescence spectral analysis relative to control; format: nucleic-acid assay
[28] = test system: Quadruplex DNA; assay: Binding affinity to human telomeric 7 G-quadruplex DNA at compound:DNA ratio of 0.4 to 1.0 by spectrofluorimetric analysis; format: nucleic-acid assay
[29] = test system: Quadruplex DNA; assay: Binding affinity to human telomeric 7 G-quadruplex DNA assessed as change in melting temperature compound:DNA ratio of 2:0 by CD spectroscopy analysis; format: nucleic-acid assay
[30] = test system: Quadruplex DNA; assay: Binding affinity to human telomeric 7 G-quadruplex DNA assessed as hypochromic red shift at 7 uM in presence of 100 mM NaCl by fluorescence spectral analysis; format: nucleic-acid assay
[31] = test system: Quadruplex DNA; assay: Binding affinity to human telomeric 7 G-quadruplex DNA assessed as binding constant Kb2 in absence of KCl by fluorescence spectral analysis; format: nucleic-acid assay
[32] = test system: Quadruplex DNA; assay: Binding affinity to human telomeric 7 G-quadruplex DNA at compound:DNA ratio of 2.3 to 6.1 by spectrofluorimetric analysis; format: nucleic-acid assay
[33] = test system: Quadruplex DNA; assay: Binding affinity to human telomeric 7 G-quadruplex DNA assessed as melting temperature Tm3 compound:DNA ratio of 0:5 by CD spectroscopy analysis; format: nucleic-acid assay
[34] = test system: Quadruplex DNA; assay: Binding affinity to human telomeric 7 G-quadruplex DNA assessed as drug-DNA complex stoichiometry ratio of 2:1 at 7 uM by absorption spectroscopy; format: nucleic-acid assay
[35] = test system: Quadruplex DNA; assay: Binding affinity to human telomeric 7 G-quadruplex DNA assessed as drug-DNA complex stoichiometry ratio of 1:1 at 7 uM by absorption spectroscopy; format: nucleic-acid assay
[36] = test system: Tetrahymena thermophila; assay: Binding affinity to Tetrahymena thermophila telomeric 22 G-quadruplex DNA assessed as binding constant Kb2
[37] = test system: Quadruplex DNA; assay: Binding affinity to human telomeric 7 G-quadruplex DNA assessed as binding constant Kb1 in 100 mM KCl by fluorescence spectral analysis; format: nucleic-acid assay
[38] = test system: Quadruplex DNA; assay: Binding affinity to human telomeric 7 G-quadruplex DNA assessed as melting temperature compound:DNA ratio of 1:0 by CD spectroscopy analysis; format: nucleic-acid assay
[39] = test system: Quadruplex DNA; assay: Binding affinity to human telomeric 7 G-quadruplex DNA assessed as hypochromic red shift by measuring difference in maximum absorption at 7 uM by absorption spectroscopy; format: nucleic-acid assay
[40] = test system: Quadruplex DNA; assay: Effect on parallel topology of human telomeric 7 G-quadruplex DNA assessed as reduction in negative band ellipticity at compound:DNA ratio of 4:0 by CD spectroscopy relative to control; format: nucleic-acid assay; set-up: scale not given: the % may be the effect or the level left
[41] = test system: Quadruplex DNA; assay: Binding affinity to human telomeric 7 G-quadruplex DNA assessed as binding constant Kb2 at 591 nanometer by spectrofluorimetric analysis; format: nucleic-acid assay
[42] = test system: Quadruplex DNA; assay: Binding affinity to human telomeric 7 G-quadruplex DNA assessed as delta Tm1 compound:DNA ratio of 2:0 by CD spectroscopy analysis; format: nucleic-acid assay
[43] = Self aggregation behaviour in phosphate buffer solution assessed as effect on absorption spectra at >10 uM by absorption spectroscopy; format: physicochemical
[44] = test system: Quadruplex DNA; assay: Binding affinity to human telomeric 7 G-quadruplex DNA assessed as red shift in emission wavelength at 7 uM measured at 591 nanometer by fluorescence spectral analysis; format: nucleic-acid assay
[45] = test system: Quadruplex DNA; assay: Binding affinity to human telomeric 7 G-quadruplex DNA assessed as binding constant Kb1 at 559.5 nanometer by spectrofluorimetric analysis; format: nucleic-acid assay
[46] = test system: Quadruplex DNA; assay: Binding affinity to human telomeric 7 G-quadruplex DNA assessed as hypochromic red shift at 7 uM in presence of water by fluorescence spectral analysis; format: nucleic-acid assay
[47] = test system: Quadruplex DNA; assay: Binding affinity to human telomeric 7 G-quadruplex DNA assessed as melting temperature Tm1 compound:DNA ratio of 0:5 by CD spectroscopy analysis (reference value: 58.8 +/- 0.4 degreeC); format: nucleic-acid assay
[48] = test system: Quadruplex DNA; assay: Binding affinity to human telomeric 7 G-quadruplex DNA assessed as binding constant Kb1 in 150 mM of KCl by fluorescence spectral analysis; format: nucleic-acid assay
[49] = test system: Quadruplex DNA; assay: Binding affinity to human telomeric 7 G-quadruplex DNA assessed as binding constant Kb2 in water by fluorescence spectral analysis; format: nucleic-acid assay
[50] = test system: Quadruplex DNA; assay: Binding affinity to human telomeric 7 G-quadruplex DNA assessed as binding constant Kb2 in 100 mM NaCl by fluorescence spectral analysis; format: nucleic-acid assay
[51] = test system: Tetrahymena thermophila; assay: Binding affinity to Tetrahymena thermophila telomeric 22 G-quadruplex DNA assessed as binding constant Kb1
[52] = test system: Quadruplex DNA; assay: Binding affinity to human telomeric 7 G-quadruplex DNA assessed as binding constant Kb1 in absence of KCl by fluorescence spectral analysis; format: nucleic-acid assay
[53] = test system: Quadruplex DNA; assay: Binding affinity to human telomeric 7 G-quadruplex DNA assessed as delta Tm2 compound:DNA ratio of 2:0 by CD spectroscopy analysis; format: nucleic-acid assay
[54] = test system: Quadruplex DNA; assay: Binding affinity to human telomeric 7 G-quadruplex DNA assessed as hypochromic red shift at 7 uM by absorption spectroscopy relative to untreated control; format: nucleic-acid assay
[55] = test system: Quadruplex DNA; assay: Binding affinity to human telomeric 7 G-quadruplex DNA assessed as binding constant Kb1 in 50 mM of KCl by fluorescence spectral analysis; format: nucleic-acid assay
[56] = test system: Quadruplex DNA; assay: Binding affinity to human telomeric 7 G-quadruplex DNA assessed as melting temperature Tm1 compound:DNA ratio of 2:0 by CD spectroscopy analysis (reference value: 58.8 +/- 0.4 degreeC); format: nucleic-acid assay
[57] = test system: Quadruplex DNA; assay: Effect on parallel topology of human telomeric 7 G-quadruplex DNA assessed as reduction in […] band ellipticity at 264 nm at compound:DNA ratio of 4:0 by CD spectroscopy relative to control; format: nucleic-acid assay; set-up: scale not given: the % may be the effect or the level left

COc1cccc2c1C(=O)c1c(O)c3c(c(O)c1C2=O)C[C@@](O)(C(=O)CO)C[C@@H]3O[C@H]1C[C@H](N)[C@@H](O)[C@H](C)O1 [EPIRUBICIN]
Activity [1]: 93%
Kb [2]: 2.3 ×10⁶ /M
Kb [3]: 4.6 ×10⁶ /M
KSV [4]: 4.1 ×10⁵ /M
Kq [5]: 7.5 ×10¹⁴ /M/s
Kb [6]: 2.7 ×10⁶ /M
Tm [7]: 77.5 °C
Kb [8]: 3 to 3.6 ×10⁵ /M
deltaA [9]: 8 nm
Kb [10]: 3.8 ×10⁶ /M
Kb [11]: 2.5 ×10⁴ /M
Kb [12]: 4.6 ×10⁵ /M
Kb [13]: 8.4 ×10⁴ /M
KSV [14]: 1.1 ×10⁶ /M
Activity [15]: 60%
Activity [16]: Active
Kb [17]: 1.9 ×10⁶ /M
Kb [18]: 4 ×10⁶ /M
Tm [19]: 70 °C
Kb [20]: 3.5 ×10⁴ /M
Activity [21]: 89%
Activity [22]: 92%
ΔTm [23]: 9.3 °C
ΔTm [24]: 26.3 °C
Activity [25]: 90%
deltaA [26]: 8 to 16 nm
Activity [27]: 39%
Kb [28]: 2 ×10⁶ /M
ΔTm [29]: 15 °C
deltaA [30]: 1 nm
Kb [31]: 0.24 ×10⁴ /M
Kb [32]: 4.6 ×10⁵ /M
Tm [33]: 90.6 °C
Activity [34]: Active
Activity [35]: Active
Kb [36]: 2.3 ×10⁵ /M
Kb [37]: 2.3 ×10⁶ /M
Tm [38]: 65 °C
deltaA [39]: 9 nm
Activity [40]: 59%
Kb [41]: 3.8 ×10⁶ /M
ΔTm [42]: 11.6 °C
Activity [43]: Active
deltaA [44]: 16 nm
Kb [45]: 2 ×10⁶ /M
deltaA [46]: 0.5 nm
Tm [47]: 68.1 °C
Kb [48]: 1.3 to 1.9 ×10⁶ /M
Kb [49]: 53 ×10⁴ /M
Kb [50]: 7.3 ×10⁴ /M
Kb [51]: 1.9 ×10⁶ /M
Kb [52]: 1.8 ×10⁴ /M
ΔTm [53]: 13.2 °C
Activity [54]: 47.6%
Kb [55]: 2.7 ×10⁶ /M
Tm [56]: 70.4 °C
Activity [57]: 18%

— ChEMBL document CHEMBL4406898, “Dual mode of binding of anti cancer drug epirubicin to G-quadruplex [d-(TTAGGGT)]4 containing human telomeric DNA sequence induces thermal stabilization” (Bioorg Med Chem, 2019)
